Counter-ions that a name gives are not always drawn. Like-named read-outs stand apart in the source and are kept apart here.
Tests used:
[1] = test system: ventricular myocytes from chicken embryos; assay: extracellular MEA field potential (FPdur) measurement on spontaneously beating heart cells; format: cell-based; conditions: submicromolecular concentrations
[2] = test system: ventricular myocytes from chicken embryos; assay: as above; format: cell-based
Method: The heart muscle cells were obtained by trypsin digestion of the isolated ventricle of chicken embryos (10-12 days after fertilization). The heart was freed of blood vessels and atria. The cells were cultured in MEM medium supplemented with 10% fetal calf serum (FCS). One to two days before the measurement, the medium was replaced by standard Tyrode solution.
The standard Tyrode solution was then replaced by a Tyrode solution with 5 μM of a test substance and the change in FPdur was determined. Thereafter, the concentration of the test substance was increased in logarithmic steps. A measurement was now taken every 10 minutes.
In measurements with quinidine, 0.5% DMSO was added to the cell Tyrode since quinidine is not water-soluble. The control experiment was also carried out with DMSO here.
In these qualitative evaluations, i.e. comparison of data from the respective control experiment and the data derived from addition of the QT-modifying substance, possible changes in the heart rate were taken into account.
For the normalized case, the FPdur value was divided by the square root of the time span (in seconds) between two action potentials.

[3] = literature reference; cited from earlier work

## Cc1cccc(CCN2CCC(C(=O)c3ccc(NS(C)(=O)=O)cc3)CC2)n1.Cl.Cl [E4031]
[1]
  prolongation of the ventricular action potential: over 90%

## COc1ccc(CCN2CCC(Nc3nc4ccccc4n3Cc3ccc(F)cc3)CC2)cc1 [astemizol]
[2]
  effect on the QT interval: prolongating effect

## COc1cc(N)c(Cl)cc1C(=O)NC1CCN(CCCOc2ccc(F)cc2)CC1OC (centres unmarked) [cisapride]
[2]
  effect on the QT interval: prolongating effect

## CC(C)(C(=O)O)c1ccc(C(O)CCCN2CCC(C(O)(c3ccccc3)c3ccccc3)CC2)cc1 (centres unmarked) [fexofenafine]
[2]
  effect on the QT interval: prolongating effect

## COc1cc2c(cc1OC)CC(=O)N(CCCN(C)C[C@H]1Cc3cc(OC)c(OC)cc31)CC2 [ivabradine]
[2]
  effect on the QT interval: No QT prolongation

## C=C[C@H]1C[N@@]2CC[C@H]1C[C@@H]2[C@@H](O)c1ccnc2ccc(OC)cc12 [quinidine]
[2]; FIG. 2B, indicated quinidine concentrations for 200 seconds
  QT prolongation (increase in FPdur): QT prolongation increasing with concentration
[2]; chicken, 10 min
  concentrations at which QT prolongations are shown in vitro in the MEA system: 2000 to 7000 nM
[2]; summary of substances tested by the inventors
  effect on the QT interval: prolongating effect
[3]
  effect on QT: QT-prolonging effect

## CC1(C)Oc2ccc(S(=O)(=O)c3ccccc3)cc2[C@@H](N2CCCC2=O)[C@@H]1O [rilmakalim]
[2]
  prolongation of the field potential: did not prolong the field potential
[2]; substance with so far unknown effect on QT interval
  beating frequency: reduced the frequency

## CC(C)NCC(O)c1ccc(NS(C)(=O)=O)cc1 (centres unmarked) [sotalol, N-[4-[1-hydroxy-2-(isopropylamino)ethyl]phenyl]methanesulfonamidehydrochloride]
[2]
  effect on the QT interval: prolongating effect
  prolongation of the action potential: about double

## CC(C)(C)c1ccc(C(O)CCCN2CCC(C(O)(c3ccccc3)c3ccccc3)CC2)cc1 (centres unmarked) [terfenadin]
[2]
  effect on the QT interval: prolongating effect
